The test system of assay [1] is Adjuvant arthritis (AA) in female Lewis rats. Description: Treatment of adjuvant arthritis in rats. It counts as in vivo, rat. The following applies: 20 mg/kg dose, orally once a day for 7 days (day 7-14). How it is done: Adjuvant arthritis (AA) was induced in female Lewis rats by the intracutaneous injection (base of the tail) of 0.1 mL of a 10 mg/mL bacterial suspension made from ground, heat-killed Mycobacterium tuberculosis H37Ra suspended in incomplete Freund's adjuvant. Rats were given a test compound orally once a day for 7 days (day 7-14), starting day 7 after mycobacterium induction. The development of polyarthritis was monitored daily by macroscopic inspection and assignment of an arthritis index to each animal, during the critical period (days 10 to 25 post-immunization).
The intensity of polyarthritis was scored according to the following scheme: (a) Grade each paw from 0 to 3 based on erythema, swelling, and deformity of the joints: 0 for no erythema or swelling; 0.5 if swelling is detectable in at least one joint; 1 for mild swelling and erythema; 2 for swelling and erythema of both tarsus and carpus; and 3 for ankylosis and bony deformity. Maximum score for all 4 paws is thus 12. (b) Grade for other parts of the body: for each ear, 0.5 for redness and another 0.5 if knots are present; 1 for connective tissue swelling (saddle nose); and 1 for the presence of knots or kinks in the tail. The highest possible arthritic index is 16.
Experiments with the AA model were repeated four times. […] The arthritis score used in this model is a reflection of the inflammatory state of the structures monitored and the results therefore show the ability of the test compound to provide relief for this aspect of the pathology.

The test system of assay [2] is IL-12. Description: Human in vitro assay: inhibition of IL-12 production in stimulated human PBMC or THP-1 cells (ELISA). The following applies: read-out: IC50 Range (in vitro IC50 for IL-12). In kind it is cell-based. The source says: The biological activities of a compound of the invention can be evaluated by a number of cell-based assays. One of such assays can be conducted using cells from human peripheral blood mononuclear cells (PBMC) or human monocytic cell line (THP-1). The cells are stimulated with a combination of human interferon-γ (IFNγ) and lipopolysaccharide or a combination of IFNγ and Staphylococcus aureus Cowan I in the presence of a test compound. The level of inhibition of IL-12 production can be measured by determining the amount of p70 by using a sandwich ELISA assay with anti-human IL-12 antibodies. IC50 of the test compound can then be determined. Specifically, PBMC or THP-1 cells are incubated with the test compound. Cell viability was assessed using the bioreduction of MTS [3-(4,5-dimethylthiazol-2-yl)-5-(3-carboxymethoxyphenyl)-2-(4-sulfophenyl)-2H-tetrazolium] (Promega, Madison, Wis.).
8. Reagents. Staphylococcus aureus Cowan I (SAC) was obtained from Calbiochem (La Jolla, Calif.), and lipopolysaccharide (LPS, Serratia marscencens) was obtained from Sigma (St. Louis, Mo.). Human and mouse recombinant IFNγ were purchased from Boehringer Mannheim (Mannheim, Germany) and Pharmingen (San Diego, Calif.), respectively.
9. Human In Vitro Assay. Human PBMC were isolated by centrifugation using Ficoll-Paque (Pharmacia Biotech, Uppsala, Sweden) and prepared in RPMI medium supplemented with 10% fetal calf serum (FCS), 100 U/mL penicillin, and 100 μg/mL streptomycin. PBMC were plated in wells of a 96-well plate at a concentration of 5×10^5 cells/well, and primed by adding IFNγ (30 U/mL) for 22 h and stimulated by adding LPS (1 μg/mL), or by adding IFNγ (100 U/mL) and then stimulated by adding SAC (0.01%). A test pyrimidine compound was dissolved in DMSO, and added to wells of the 96-well plate. The final DMSO concentration was adjusted to 0.25% in all cultures, including the compound-free control. Human THP-1 cells were plated in wells, primed by adding IFNγ (100 U/mL) for 22 h and stimulated by adding SAC (0.025%) in the presence of different concentrations of the pyrimidine compound. Cell-free supernatants were taken 18 h later for measurement of cytokines. Cell viability was assessed using the bioreduction of MTS. Cell survival was estimated by determining the ratio of the absorbance in compound-treated groups versus compound-free control.
10. The supernatant was assayed for the amount of […], IL-12p70, or IL-10 by using a sandwich ELISA with anti-human antibodies, i.e., a Human IL-12 p40 ELISA kit from R&D Systems (Berkeley, Calif.), and a Human IL-12 p70 or IL-10 ELISA kit from Endogen (Cambridge, Mass.). Assays were based on the manufacturer's instructions.
The biological activities of compounds of the invention were tested on human PBMC or THP-1 cells.

A value given as a limit tells only on which side of the number the result lay.

Usually IC50 stands for the concentration that inhibits the measured activity by half. Turning to `Cc1ccc2c(c1)/C(=N/Nc1cc(N3CCOCC3)nc(OCCN3CCOCC3)n1)CC2` [Compound 3, N-(6-Methyl-indan-1-ylidene)-N′-[6-morpholin-4-yl-2-(2-morpholin-4-yl-ethoxy)-pyrimidin-4-yl]-hydrazine], in assay [1], the “percent reduction in arthritic score” value is listed as 25% reduction. For the same molecule, the IC50 in assay [2] was less than 1000 nM.
`COc1ccc2c(c1)/C(=N/Nc1cc(N3CCOCC3)nc(OCCN3CCOCC3)n1)CC2` [Compound 9, N-(6-Methoxy-indan-1-ylidene)-N′-[6-morpholin-4-yl-2-(2-morpholin-4-yl-ethoxy)-pyrimidin-4-yl]-hydrazine]: in assay [1], the “percent reduction in arthritic score” value was 24%. The IC50 in assay [2] was less than 1000 nM.
